Assays:
implantation in rats = test: Effects of L-NAME on implantation in pregnant rats (FIG. 1 and FIG. 2); type: in vivo
Procedure: The animals were treated with 25 and 50 mg/animal/day L-NAME administered via continuous s.c. infusion from day 1 post coitum (p.c.) until day 7 p.c The autopsy was performed on day 12 p.c.
The animals were treated with 25 and 50 mg/animal/day L-NAME administered via continuous s.c. infusion on day 5-7 (p.c.). The autopsy was performed on either day 9 p.c. or day 12 p.c.
In the experiments whose results are shown in FIG. 1, pregnant rats (n=6/group) were treated with 25 and 50 mg/animal/day L-NAME from day 1 p.c. until day 7 p.c., i.e. during the period of pre-implantation and early implantation (in rats implantation takes place on day 5 p.c. ). The control animals were treated with the vehicle. During autopsy (days 9 and 12 p.c.) the implantation sites were assessed macroscopically, their diameter was measured, and the weights of isolated implantation sites (embryonic and placental tissues) were recorded. FIG. 2 presents results from a second study In pregnant rats in which L-NAME (25 and 50 mg/anilal/day) treatment was performed on days 5-7 p.c., i.e. shortly after nidation had taken place. The autopsy was performed on day 12 p.c. Implantation showing haemorrhagic changes were defined as pathological implantation sites.

[1] = system: uterine strips from rats at mid to near term gestation; conditions: cited from earlier work
uterine blood flow = conditions: low dose aspirin, patients with impeded blood flow; cited from earlier work
implantation = test: Other studies: L-NAME effects on implantation combined with low-dose onapristone; type: in vivo; conditions: onapristone low-dose 0.1-0.3 mg/animal/day together with L-NAME
[2] = 25 and 50 mg/animal/day s.c. infusion, autopsy day 9 or 12 p.c.

For `COC(=O)[C@@H](N)CCCNC(=N)N[N+](=O)[O-]` [L-NAME, NG-nitro-L-arginine methyl ester], the effect on implantation (implantation in rats; 25 and 50 mg/animal/day continuous s.c. infusion, day 1-7 p.c. or days 5-7 p.c.) was “profound effect on implantation”, the “size of the implantation sites” value (implantation in rats; [2]) was “dose-dependent inhibition” and the “weight of the implantation sites” value (implantation in rats; [2]) was “dose-dependent inhibition”. The “pathological changes in the implantation sites” value (implantation in rats; 25 and 50 mg/animal/day s.c. infusion, haemorrhagic changes defined as pathological) was “induced pathological changes in the implantation sites (mainly haemorrhages)”.
In the case of `N=C(N)NCCC[C@H](N)C(=O)O` [L-arginine], the “relaxation of spontaneous activity of uterine strips” value [1] is listed as “rapid and substantial relaxation”.
For `CC(=O)Oc1ccccc1C(=O)O` [aspirin], the “effect on uterine blood flow” value (uterine blood flow) is listed as “only marginal”.
For `CN(C)c1ccc([C@H]2C[C@]3(C)[C@@H](CC[C@]3(O)CCCO)[C@@H]3CCC4=CC(=O)CCC4=C32)cc1` [onapristone], the “L-NAME-induced effects on implantation with added antiprogestin” value (implantation) was “enhanced”.

— patent US20020169205A1, “Implantation rates after in vitro fertilization, and treatment of infertility and early pregnancy loss with a nitric oxide donor or substrate alone or in combination with progesterone, and a method for contraception with nitric oxide inhibitors in combination with antiprogestins or other agents” (priority 1998, published 2002)
